These results are taken from US20230218746A1, “COMPOSITIONS AND METHODS RELATING TO ANTIVIRAL THERAPEUTICS” (priority 2020, published 2023).

One assay concerns COVID-19. The note with it: hospitalized COVID-19 patients; cited from earlier work.
A further assay concerns SARS-CoV-2 mimics. Description: In vivo clearance of the SARS-CoV-2 mimicking virus by nanodecoys in mice. As to conditions: mouse. Set-up: species or system CD1 mice.

Turning to lopinavir/ritonavir, the “effect on overall mortality, necessity for mechanical ventilation, and length of hospital stay” value in the assay on COVID-19 is recorded as “little or no effect”.

For the compound “rACE2: free recombinant ACE2 protein, same amount of ACE2 as on the nanodecoys”, the “amounts of SARS-CoV-2 mimics in lungs (ex vivo imaging)” value in the assay with SARS-CoV-2 mimics is recorded as “ineffective”.

As for `CCN(CCO)CCCC(C)Nc1ccnc2cc(Cl)ccc12` (stereo not drawn) [hydroxychloroquine], in the assay with COVID-19, the “effect on overall mortality, necessity for mechanical ventilation, and length of hospital stay” value was “little or no effect”.
